The values that follow come from US11168095B2, “ASK1 inhibiting agents” (BIOGEN MA INC., priority 2017, dated 2021).

The structures appear in SMILES notation. Several values for one entry are separate records, joined by “and”; a condition that tells them apart may be missing. Equal values may be shown once. Read-outs that look alike come from different tables or passages of the source.

The conditions of series [1]: 14-membered ring.
For series [2] the following is noted: amide bond, 14-membered ring, T3P/Et3N.
The next series deals with GST-hASK1 (Homo sapiens (Human), UniProt Q99683). Briefly: ASK1 TR-FRET assay. In kind it is biochemical. Particulars: 5 nM GST-hASK1, 100 μM ATP, 2 μM STK Substrate 3. As to the method: The protein kinase activity of 5 nM GST-hASK1(Life Technologies PV4011) was assayed with 100 μM ATP and 2 μM of HTRF biotinylated STK Substrate 3 (CisBio Kit 62ST3PEJ), at ambient temperature in 25 mM Hepes, pH 7.5, 50 mM NaCl, 10 mM MgCl2, 0.02% Brij-35, 1 mM DTT, and 1% DMSO.
GST-hASK1, sequence (Q99683 649-946): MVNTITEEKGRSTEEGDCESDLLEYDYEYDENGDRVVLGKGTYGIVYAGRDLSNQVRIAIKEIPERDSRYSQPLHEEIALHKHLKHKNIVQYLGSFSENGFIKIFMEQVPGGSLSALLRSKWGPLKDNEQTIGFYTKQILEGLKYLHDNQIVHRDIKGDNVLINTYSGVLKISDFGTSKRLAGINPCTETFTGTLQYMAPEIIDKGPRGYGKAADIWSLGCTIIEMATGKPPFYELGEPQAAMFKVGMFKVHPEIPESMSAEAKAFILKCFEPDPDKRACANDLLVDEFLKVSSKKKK
After a 10 minute pre-incubation, ASK1 protein kinase activity was initiated by addition of 10 μL of 300 μM ATP.

For a further series, the target named is ASK1/MAP3K5 (Homo sapiens (Human), UniProt Q99683). Briefly: ASK1/MAP3K5 assay by Reaction Biology Corp. In kind it is biochemical. Particulars: 20 μM myelin basic protein (MBP), 10 μM ATP. The procedure:
ASK1/MAP3K5 was used as the protein kinase and 20 μM of myelin basic protein (MBP) and 10 μM ATP were used as the substrate.

Series [3] has as its target ASK1 T838 auto phosphorylation in HEK-293T cells (Homo sapiens (Human), UniProt Q99683). Nature of the series: ASK1 (AUTO PHOS T838) assay, MSD format. In kind it is cell-based. To be noted: HEK 293T cells transfected with ASK1-V5 full length plasmid, compounds 1 hr at 37° C.; read-out: IC50.

ASK1/MAP3K5, sequence (Q99683 whole entry): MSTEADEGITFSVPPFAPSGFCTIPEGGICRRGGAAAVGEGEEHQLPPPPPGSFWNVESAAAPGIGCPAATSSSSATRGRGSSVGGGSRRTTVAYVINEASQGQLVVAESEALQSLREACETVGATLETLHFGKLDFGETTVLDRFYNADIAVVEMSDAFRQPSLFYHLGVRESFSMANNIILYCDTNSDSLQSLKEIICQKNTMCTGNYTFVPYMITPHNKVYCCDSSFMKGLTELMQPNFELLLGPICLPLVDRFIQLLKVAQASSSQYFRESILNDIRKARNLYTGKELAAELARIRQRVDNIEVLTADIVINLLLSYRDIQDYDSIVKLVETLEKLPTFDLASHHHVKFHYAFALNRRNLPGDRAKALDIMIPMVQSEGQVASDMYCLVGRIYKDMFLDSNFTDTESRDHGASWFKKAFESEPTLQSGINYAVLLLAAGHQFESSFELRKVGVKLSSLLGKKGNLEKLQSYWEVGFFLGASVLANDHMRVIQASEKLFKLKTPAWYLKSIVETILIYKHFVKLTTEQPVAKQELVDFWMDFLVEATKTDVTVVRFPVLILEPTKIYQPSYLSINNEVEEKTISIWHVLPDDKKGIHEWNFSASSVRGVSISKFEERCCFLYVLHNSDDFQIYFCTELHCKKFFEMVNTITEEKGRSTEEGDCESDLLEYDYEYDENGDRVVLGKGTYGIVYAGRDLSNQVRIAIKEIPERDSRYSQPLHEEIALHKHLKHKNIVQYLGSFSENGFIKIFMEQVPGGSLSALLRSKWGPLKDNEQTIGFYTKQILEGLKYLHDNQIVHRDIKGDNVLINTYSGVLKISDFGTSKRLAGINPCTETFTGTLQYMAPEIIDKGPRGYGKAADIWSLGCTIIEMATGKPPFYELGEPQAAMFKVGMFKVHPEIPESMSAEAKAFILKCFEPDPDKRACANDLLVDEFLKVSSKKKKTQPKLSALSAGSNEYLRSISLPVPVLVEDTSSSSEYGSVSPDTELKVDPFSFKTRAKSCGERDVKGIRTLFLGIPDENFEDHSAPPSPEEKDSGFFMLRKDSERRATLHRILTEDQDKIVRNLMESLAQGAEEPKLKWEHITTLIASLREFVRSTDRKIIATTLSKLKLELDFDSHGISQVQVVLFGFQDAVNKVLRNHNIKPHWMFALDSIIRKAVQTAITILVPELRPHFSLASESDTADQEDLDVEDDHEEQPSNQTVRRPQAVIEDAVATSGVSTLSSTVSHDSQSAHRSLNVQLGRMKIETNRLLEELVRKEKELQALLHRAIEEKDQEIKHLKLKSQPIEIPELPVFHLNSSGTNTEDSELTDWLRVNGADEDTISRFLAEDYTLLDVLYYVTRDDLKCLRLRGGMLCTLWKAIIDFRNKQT
ASK1 T838 auto phosphorylation in HEK-293T cells, sequence (Q99683 whole entry): as above

`CC(C)(C)OC(=O)N1C(=O)c2cc(Br)c(F)cc2OCCC=CCn2cnnc2-c2cccc1n2` had a ring closure, isolated yield (from C=CCCOc1cc(F)c(Br)cc1C(=O)N(C(=O)OC(C)(C)C)c1cccc(-c2nncn2CC=C)n1, rcm bond, 15-membered ring, Hoveyda-Grubbs I (20 mol%), toluene, 1.66 mM, 110.0 °C, 17.0 h) of 31%.

As to `CC(C)(C)OC(=O)N1C(=O)c2ccc(C(F)(F)F)cc2OCC=CCn2cnnc2-c2cccc1n2`, the ring closure, yield after HPLC in series [1] (from C=CCOc1cc(C(F)(F)F)ccc1C(=O)N(C(=O)OC(C)(C)C)c1cccc(-c2nncn2CC=C)n1, rcm bond, Hoveyda-Grubbs I (20 mol%), toluene, 1.9 mM, 110.0 °C, 17.0 h) was 9% and 13%.

For `O=C1Nc2cccc(n2)-c2nncn2CC=CCOc2cc(C(F)(F)F)ccc21`, where the note is “from C=CCOc1cc(C(F)(F)F)ccc1C(=O)Nc1cccc(-c2nncn2CC=C)n1, rcm bond, 14-membered ring, Hoveyda-Grubbs II (10 mol%), DCE, 2.64 mM, 80.0 °C, 3.0 h”, the ring closure, isolated yield came out at 41%.

With `O=C1Nc2cccc(n2)-c2nncn2CCCCOc2cc(C(F)(F)F)c(Cl)cc21`, the ring closure, yield after HPLC in series [1] (from Nc1cccc(-c2nncn2CCCCOc2cc(C(F)(F)F)c(Br)cc2C(=O)O)n1, amide bond, T3P/Et3N, Et3N/EtOAc, 18.0 mM, 50.0 °C, 4.0 h) worked out at 40%.

`O=C1Nc2cccc(n2)-c2nncn2CCCCOc2cc(Cl)c(F)cc21` showed a ring closure, isolated yield (from Nc1cccc(-c2nncn2CCCCOc2cc(Br)c(F)cc2C(=O)O)n1, amide bond, 14-membered ring, T3P/Et3N, Et3N/EtOAc, 110.0 °C, 0.05 h, 2 steps) of 55%.

`O=C1Nc2cccc(n2)-c2nncn2CCCCOc2cc(Cl)ccc21` showed a ring closure, isolated yield (from Nc1cccc(-c2nncn2CCCCOc2cc(Br)ccc2C(=O)O)n1, amide bond, 14-membered ring, T3P/Et3N, Et3N/EtOAc, 116.0 mM, 50.0 °C, 3.0 h) of 27%.

The compound `O=C1Nc2cccc(n2)-c2nncn2CCCCOc2cc(F)c(Cl)cc21` gave a ring closure, isolated yield (from Nc1cccc(-c2nncn2CCCCOc2cc(F)c(Br)cc2C(=O)O)n1, amide bond, 14-membered ring, T3P/Et3N, Et3N/EtOAc, 117.0 mM, 80.0 °C, 17.0 h) of 35%.

As for `O=C1Nc2cccc(n2)-c2nncn2CCCCOc2ccc(Cl)cc21`, the ring closure, isolated yield (from Nc1cccc(-c2nncn2CCCCOc2ccc(Br)cc2C(=O)O)n1, amide bond, 14-membered ring, T3P/Et3N, Et3N/EtOAc, 76.0 mM, 80.0 °C, 4.0 h) is 41%.

The compound `CC1CCCOc2cc(Cl)ccc2C(=O)Nc2cccc(n2)-c2nncn21` (racemic) had a ring closure, crude yield in series [2] (from CC(CCCOc1cc(Br)ccc1C(=O)O)n1cnnc1-c1cccc(N)n1, EtOAc/Et3N, 50.0 °C, 12.0 h) of 37%.

Take `CC1CCCn2cnnc2-c2cccc(n2)NC(=O)c2cc(Cl)ccc2O1` (racemic): the ring closure, crude yield in series [2] (from CC(CCCn1cnnc1-c1cccc(N)n1)Oc1ccc(Br)cc1C(=O)O, Et3N/EtOAc, 137.0 mM, 70.0 °C, 3.0 h) is 57%.

For the setting “from CC(CCOc1cc(F)c(Br)cc1C(=O)O)Cn1cnnc1-c1cccc(N)n1, amide bond, 14-membered ring, T3P/Et3N, Et3N/EtOAc, 43.0 mM, 70.0 °C, 2.0 h”, `CC1CCOc2cc(F)c(Cl)cc2C(=O)Nc2cccc(n2)-c2nncn2C1` (racemic) came in with a ring closure, isolated yield of 23%.

As for `Cc1nn(C)cc1-c1ccc2c(c1)C(=O)Nc1cccc(n1)-c1nncn1CCCCO2` [Example 32, 5^5-(1,3-Dimethyl-1H-pyrazol-4-yl)-1^4H-6-oxa-3-aza-2(2,6)-pyridina-1(3,4)-triazola-5(1,2)-benzenacyclodecaphan-4-one], the IC50 is below 100 nM against GST-hASK1, below 100 nM on ASK1/MAP3K5 and below 1000 nM in series [3].

Consider `Cc1nn(C)c(C)c1-c1ccc2c(c1)C(=O)Nc1cccc(n1)-c1nncn1CCCCO2` [Example 33, 5^5-(1,3,5-Trimethyl-1H-pyrazol-4-yl)-1^4H-6-oxa-3-aza-2(2,6)-pyridina-1(3,4)-triazola-5(1,2)-benzenacyclodecaphan-4-one], for which the IC50 against GST-hASK1 was below 100 nM; against ASK1/MAP3K5, below 100 nM; in series [3] it was below 1000 nM.

Take `Cc1cc(-c2ccc3c(c2)C(=O)Nc2cccc(n2)-c2nncn2CCCCO3)n(C)n1` [Example 34, 5^5-(1,3-Dimethyl-1H-pyrazol-5-yl)-1^4H-6-oxa-3-aza-2(2,6)-pyridina-1(3,4)-triazola-5(1,2)-benzenacyclodecaphan-4-one]: the IC50 is below 100 nM against GST-hASK1, below 100 nM at ASK1/MAP3K5 and below 1000 nM in series [3].

For `Cc1ncn(-c2ccc3c(c2)C(=O)Nc2cccc(n2)-c2nncn2CCCCO3)c1C` [Example 42, 5^5-(4,5-Dimethyl-1H-imidazol-1-yl)-1^4H-6-oxa-3-aza-2(2,6)-pyridina-1(3,4)-triazola-5(1,2)-benzenacyclodecaphan-4-one], the IC50 on GST-hASK1 was below 100 nM; against ASK1/MAP3K5, below 100 nM; in series [3], below 1000 nM.

Consider `O=C1Nc2cccc(n2)-c2nncn2CCCCOc2ccc(-n3cccn3)cc21` [Example 44, 5^5-(1H-Pyrazol-1-yl)-1^4H-6-oxa-3-aza-2(2,6)-pyridina-1(3,4)-triazola-5(1,2)-benzenacyclodecaphan-4-one], for which the half-maximal inhibitory concentration (IC50) against GST-hASK1 is below 100 nM; against ASK1/MAP3K5, below 100 nM; in series [3] it was below 1000 nM.

`Cc1cn(-c2ccc3c(c2)C(=O)Nc2cccc(n2)-c2nncn2[C@H](C)CCCO3)cn1` [Example 93, (R)-10-Methyl-5^5-(4-methyl-1H-imidazol-1-yl)-1^4H-6-oxa-3-aza-2(2,6)-pyridina-1(3,4)-triazola-5(1,2)-benzenacyclodecaphan-4-one]: the IC50 at GST-hASK1 was below 100 nM; against ASK1/MAP3K5, below 100 nM; in series [3] it was below 1000 nM.

Take `Cc1cn(-c2ccc3c(c2)C(=O)Nc2cccc(n2)-c2nncn2[C@@H](C)CCCO3)cn1` [Example 94, (S)-10-Methyl-5^5-(4-methyl-1H-imidazol-1-yl)-1^4H-6-oxa-3-aza-2(2,6)-pyridina-1(3,4)-triazola-5(1,2)-benzenacyclodecaphan-4-one]: the IC50 at GST-hASK1 was below 100 nM; against ASK1/MAP3K5 it was below 100 nM; in series [3], below 1000 nM.

On to `C[C@H]1CCCOc2ccc(-c3cnn(C)c3)cc2C(=O)Nc2cccc(n2)-c2nncn21` [Example 96, (S)-10-Methyl-5^5-(1-methyl-1H-pyrazol-4-yl)-1^4H-6-oxa-3-aza-2(2,6)-pyridina-1(3,4)-triazola-5(1,2)-benzenacyclodecaphan-4-one], for which the IC50 at GST-hASK1 is below 100 nM; at ASK1/MAP3K5, below 100 nM; in series [3], below 1000 nM.

As to `O=C1Nc2cccc(n2)-c2nncn2CCCCCOc2ccc(N3CCOCC3)cc21` [Example 172, 5^5-Morpholino-1^4H-6-oxa-3-aza-2(2,6)-pyridina-1(3,4)-triazola-5(1,2)-benzenacycloundecaphan-4-one], the IC50 was below 100 nM against GST-hASK1, below 100 nM on ASK1/MAP3K5 and below 1000 nM in series [3].

`O=C1Nc2cccc(n2)-c2nncn2CCCCCOc2ccc(N3CC4(COC4)C3)cc21` [Example 173, 5^5-(2-Oxa-6-azaspiro[3.3]heptan-6-yl)-1^4H-6-oxa-3-aza-2(2,6)-pyridina-1(3,4)-triazola-5(1,2)-benzenacycloundecaphan-4-one]: the IC50 on GST-hASK1 is below 100 nM; against ASK1/MAP3K5, below 100 nM; in series [3] it was below 1000 nM.
